For data set [1], the target named is T1, FOLR1 (Homo sapiens, UniProt P15328).
T1 construct: purchased AcroBiosystems F01-H82F9
The data set is described as follows: Peptide binding to FOLR1 (SPR, Biacore 8K). The settings on record: FOLR1-Fc-Avi immobilized, 25° C., Langmuir 1:1 binding model. The procedure: For analysis of peptide binding, a Biacore 8K instrument was used utilizing either a SA chip or a CAP chip. FOLR1-Fc-Avi (AcroBiosystems, F01-H82F9) was immobilized on the chip using streptavidin-biotin chemistry at 25° C. in PBS-P+ buffer (20 mM phosphate, 2.7 mM KCl, 137 mM NaCl, 0.05% Tween-20, pH 7.4) to a level of 500-2500 RU (dependent on the analyte molecular weight). A dilution series of peptides was prepared in this buffer with a final DMSO concentration of 1% with a top peptide concentration at 50 or 100 nM and 8 further 2-fold dilutions. The SPR analysis was run at 25° C. at a flow rate of 100 μL/min in PBS-P+ with 1% DMSO running buffer and with a 120 second association and 10,000 second dissociation using single cycle kinetics methodology. All data was analyzed using Biacore Insight Evaluation Software version 3.) Data was fitted using a Langmuir 1:1 binding model.
Kd values of peptides of the present disclosure are given in Table 8 below, where Kd 0 nM<A≤10 nM.

Data set [2] has as its target T2, PSMA (Homo sapiens, UniProt Q04609).
T2 construct: purchased AcroBiosystems PSA-H82Qb
The data set is described as follows: Peptide binding to PSMA (SPR, Biacore 8K). The settings on record: His-Avi-PSMA immobilized, 25° C., Langmuir 1:1 binding model. The procedure: For analysis of peptide binding, a Biacore 8K instrument was used utilizing a SA chip. His-Avi-PSMA (AcroBiosystems, PSA-H82Qb) was immobilized on the chip using streptavidin-biotin chemistry at 25° C. in HBS-P+ buffer (10 mM HEPES, 150 mM NaCl, 0.05% Tween-20, pH 7.4) to a level of 800-2200 RU (dependent on the analyte molecular weight). A dilution series of peptides was prepared in this buffer with a final DMSO concentration of 1% with a top peptide concentration between 10-100 nM and 8 further 2-fold dilutions. The SPR analysis was run at 25° C. at a flow rate of 100 μL/min in HBS-P+ with 1% DMSO running buffer and with a 120 second association and 10,000 second dissociation using single cycle kinetics methodology. All data was analyzed using Biacore Insight Evaluation Software version 3. Data was fitted using a Langmuir 1:1 binding model.

The target of data set [3] is T3, Human Serum Albumin (HSA) (Homo sapiens, UniProt P02768).
T3 construct: purchased ChiralPAK HSA HPLC column, 50×4 mm
T3 sequence (P02768 25-609): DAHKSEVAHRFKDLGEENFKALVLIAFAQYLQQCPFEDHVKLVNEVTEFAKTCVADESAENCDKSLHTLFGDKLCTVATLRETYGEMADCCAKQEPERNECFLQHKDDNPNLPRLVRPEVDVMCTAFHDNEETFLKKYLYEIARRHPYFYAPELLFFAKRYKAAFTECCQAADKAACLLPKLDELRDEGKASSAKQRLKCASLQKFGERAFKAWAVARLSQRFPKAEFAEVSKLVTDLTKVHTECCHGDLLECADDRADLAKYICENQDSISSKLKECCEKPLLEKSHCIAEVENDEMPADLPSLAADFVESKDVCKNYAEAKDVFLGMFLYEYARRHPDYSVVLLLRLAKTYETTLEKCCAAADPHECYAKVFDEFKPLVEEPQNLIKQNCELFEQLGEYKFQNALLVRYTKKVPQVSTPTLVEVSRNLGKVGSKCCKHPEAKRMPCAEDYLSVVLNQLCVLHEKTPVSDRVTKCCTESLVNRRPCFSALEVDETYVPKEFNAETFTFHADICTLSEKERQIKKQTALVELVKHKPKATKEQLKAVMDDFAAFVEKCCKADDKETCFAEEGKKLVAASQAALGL
In words: HSA-HPLC plasma protein binding (immobilized human serum albumin-HPLC). It counts as in vitro ADME. The settings on record: HSA-HPLC method, room temperature, estimated from gradient retention times, read-out: % Bound to HSA at r.t. The source says: • HSA-HPLC method (measurement of drug protein binding by immobilized human serum albumin-HPLC). A 13-minute HPLC (Thermo Vanquish Horizon with Diode Array Detector) gradient method was used to determine the HSA (Human Serum Albumin) binding of novel compounds using a chemically bonded protein stationary phase (ChiralPAK HSA HPLC column, 50×4 mm). The HSA binding values were derived from the gradient retention times that were converted to the logarithm of the equilibrium constant using data from a calibration set of molecules. The % bound to plasma values for the calibrator compounds were converted to the linear free energy values using the following equation: LogK=log[% PPB/(101−% PPB)]. The logarithmic value of the gradient retention times from the experiment were plotted against the linearized values of the percent bound to plasma. The slope and the intercept were used to convert the retention times to linear free energy values (LogK), from which the estimated % protein binding was calculated using the following equation: % Binding=[(101·10^LogK)/(1+10^LogK)]. Aqueous mobile phase (A) was 50 mM ammonium acetate solution, ph7.4 and the organic mobile phase (B) was 2-propanol. […] Chromatograms were recorded at 280 nm by a diode array UV absorption detector. […]

The target of data set [4] is T4, Trop-2 (Homo sapiens, UniProt P09758).
T4 construct: purchased AcroBiosystems TR2-H5223
T4 sequence (P09758 27-323): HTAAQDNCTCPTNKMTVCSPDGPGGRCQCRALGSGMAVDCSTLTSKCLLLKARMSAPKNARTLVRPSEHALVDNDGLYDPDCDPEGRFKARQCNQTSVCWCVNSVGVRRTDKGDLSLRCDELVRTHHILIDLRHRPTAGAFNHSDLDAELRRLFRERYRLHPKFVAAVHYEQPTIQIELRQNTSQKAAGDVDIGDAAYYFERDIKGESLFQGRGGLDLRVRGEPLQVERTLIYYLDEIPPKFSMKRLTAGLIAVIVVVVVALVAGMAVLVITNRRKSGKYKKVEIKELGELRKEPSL
The data set is described as follows: Conjugate binding to Trop-2 (BLI, GatorPrime). The settings on record: biotinylated peptides immobilized, His-tagged Trop-2, 30° C., Langmuir 1:1 binding model. As to the method:
For analysis of peptide binding, a GatorPrime instrument was used utilizing SMAP probes. Biotinylated peptides of 1 μM were immobilized on the sensor using streptavidin-biotin chemistry at 25° C. in HBS-P+ buffer (10 mM HEPES, 150 mM NaCl, 0.05% Tween-20, pH 7.4). A dilution series of His-tagged Trop-2 (AcroBiosystems, TR2-H5223) was prepared in this buffer with a top peptide concentration at 100 nM and 6 further 3-fold dilutions. The BLI analysis was run at 30° C. with a 120 second association and 120 second dissociation. All data was analyzed using GatorLaunch software. Data was fitted using a Langmuir 1:1 binding model.

Data set [5] concerns PSMA expressing cells (LnCap). In words: FACS binding to PSMA expressing cells. It counts as cell-based. The settings on record: biotinylated compounds. As to the method: LnCap cells, 2e^6 cells/ml
SYTOX viability dye • (1) Washed cells with PBS once. • (2) Incubated cells with 5 ml of Accutase at 37 degrees for 2-5 minutes. Gently rocking the flask until the layer of cells pilling off • (3) Added 15 ml of PBS into flask and transferred to a 50 ml conical tube • (4) Spun down 1600 rpm 3 minutes • (5) Resuspended in 2 ml of PBS, and counted cells • (6) Adjusted cell density to 2e6 cells/ml with PBS and then added 100 uL/well to the plate and mixed well • (7) Spun down 1600 rpm 3 minutes • (8) Add 100 uL of compound/well respectively. Prepared serial dilute compound in PBS, 1 uM to 0.01 nM, 1:3 dilution, 10 point curve • (9) Incubated for 50 minutes total • (10) Washed wells with 150 uL PBS and spun down 1600 rpm 3 min and dumped • (11) Added SA-A647, 1:1000 dilution in FACS buffer, 100 ul/well to respective wells • (12) Incubated for 50 min on ice • (13) Washed with 200 uL PBS spun 1600 rpm 3 min dump • (14) Resuspended in 100 uL SYTOX, 1:1000 dilution in FACS buffer • (15) Acquired

Like-named read-outs stand apart in the source and are kept apart here. Numbered stars: 1 amine (or outer) side, 2 acyl side, 3 side chain; on linkers, the order of the positions; unused ones are H or OH. Bridge positions count the residues as written; N and C are the ends. Square brackets hold non-standard residues; d marks the D form. Peptide text beside a SMILES is read from it. Trp(6-Cl) = N[C@@H](Cc1c[nH]c2cc(Cl)ccc12)C(=O)O; Phe(3-Ph) = N[C@@H](Cc1cccc(-c2ccccc2)c1)C(=O)O; Bip = N[C@@H](Cc1ccc(-c2ccccc2)cc1)C(=O)O; Phe(3-Cl) = N[C@@H](Cc1cccc(Cl)c1)C(=O)O; γGlu = O=C(O)[C@H](CCC(=O)[*:2])N[*:1]; NMeY = CN[C@@H](Cc1ccc(O)cc1)C(=O)O; NMeF = CN[C@@H](Cc1ccccc1)C(=O)O; hPhe = N[C@@H](CCc1ccccc1)C(=O)O; 3Pal = N[C@@H](Cc1cccnc1)C(=O)O; Ahp(2) = CCCCC[C@H](N)C(=O)O; Cba = N[C@@H](CC1CCC1)C(=O)O; Chg = N[C@H](C(=O)O)C1CCCCC1; NMeA = CN[C@@H](C)C(=O)O; βAla = NCCC(=O)O; Sar = CNCC(=O)O

T1 sequence (P15328 25-234): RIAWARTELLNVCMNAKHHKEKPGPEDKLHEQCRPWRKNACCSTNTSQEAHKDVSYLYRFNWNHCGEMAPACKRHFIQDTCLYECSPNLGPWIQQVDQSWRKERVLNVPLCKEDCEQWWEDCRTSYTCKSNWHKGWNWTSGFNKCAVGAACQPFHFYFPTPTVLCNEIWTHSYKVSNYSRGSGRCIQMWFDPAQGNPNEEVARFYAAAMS
T2 sequence (Q04609 whole entry): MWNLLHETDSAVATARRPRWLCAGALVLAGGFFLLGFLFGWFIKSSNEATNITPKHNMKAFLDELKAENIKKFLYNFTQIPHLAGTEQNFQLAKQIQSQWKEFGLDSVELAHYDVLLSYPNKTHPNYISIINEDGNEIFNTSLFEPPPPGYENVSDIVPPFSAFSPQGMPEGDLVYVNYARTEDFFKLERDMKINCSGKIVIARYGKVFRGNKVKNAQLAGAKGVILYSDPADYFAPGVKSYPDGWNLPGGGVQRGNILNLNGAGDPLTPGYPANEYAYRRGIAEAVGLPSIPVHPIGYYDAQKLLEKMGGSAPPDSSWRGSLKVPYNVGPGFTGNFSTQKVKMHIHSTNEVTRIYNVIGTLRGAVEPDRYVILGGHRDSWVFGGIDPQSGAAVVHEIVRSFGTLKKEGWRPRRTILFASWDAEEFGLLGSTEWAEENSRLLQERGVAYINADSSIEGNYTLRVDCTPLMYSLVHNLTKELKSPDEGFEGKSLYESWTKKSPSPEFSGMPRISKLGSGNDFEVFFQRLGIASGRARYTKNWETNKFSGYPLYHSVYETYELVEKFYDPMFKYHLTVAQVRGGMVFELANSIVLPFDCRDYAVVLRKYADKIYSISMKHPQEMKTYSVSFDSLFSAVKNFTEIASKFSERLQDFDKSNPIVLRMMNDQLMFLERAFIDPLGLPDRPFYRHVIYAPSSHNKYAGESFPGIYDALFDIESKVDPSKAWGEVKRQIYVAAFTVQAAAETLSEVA

In data set [1], `CC(C)C[C@@H]1NC(=O)[C@H](CCCNC(=N)N)NC(=O)[C@H](C)NC(=O)CSC[C@@H](C(N)=O)NC(=O)[C@H](Cc2ccc(O)cc2)NC(=O)[C@H](Cc2c[nH]c3ccccc23)NC(=O)[C@H](Cc2ccc(O)cc2)N(C)C(=O)[C@H](Cc2ccc(O)cc2)N(C)C(=O)[C@H]([C@@H](C)O)NC(=O)[C@H](CC(=O)O)NC(=O)[C@H](Cc2ccc(O)cc2)NC(=O)[C@H](CC(=O)O)NC(=O)[C@H](Cc2ccccc2)N(C)C1=O` [Compound P-10] ({CH2CO}-ARL[NMeF]DYDT[NMeY][NMeY]WYC-NH2; thioether N-13) had a dissociation constant Kd of less than 10 nM.

Turning to `C[C@@H](O)[C@@H]1NC(=O)[C@H](CC(=O)O)NC(=O)[C@H](Cc2cccc(Cl)c2)NC(=O)[C@H](CC(=O)O)NC(=O)[C@H](Cc2ccccc2)N(C)C(=O)[C@H](C2CCCCC2)NC(=O)[C@H](CCCNC(=N)N)NC(=O)[C@H](CC(=O)O)NC(=O)CSC[C@@H](C(N)=O)NC(=O)[C@H](Cc2ccc(O)cc2)NC(=O)[C@H](Cc2c[nH]c3ccccc23)NC(=O)[C@H](Cc2ccc(O)cc2)N(C)C(=O)[C@H](Cc2ccc(O)cc2)N(C)C1=O` [Compound P-11] ({CH2CO}-DR[Chg][NMeF]D[Phe(3-Cl)]DT[NMeY][NMeY]WYC-NH2; thioether N-13), the dissociation constant (Kd) in data set [1] was less than 10 nM. Same read-out and setting: the figure for `C[C@@H](O)[C@@H]1NC(=O)[C@H](CC(=O)O)NC(=O)[C@H](Cc2ccc(O)cc2)NC(=O)[C@H](CC(=O)O)NC(=O)[C@H](Cc2ccccc2)N(C)C(=O)[C@H](C2CCCCC2)NC(=O)[C@H](CCCNC(=N)N)NC(=O)[C@H](CC(=O)O)NC(=O)CSC[C@@H](C(N)=O)NC(=O)[C@H](Cc2ccc(O)cc2)NC(=O)[C@H](Cc2c[nH]c3ccccc23)NC(=O)[C@H](Cc2ccc(O)cc2)N(C)C(=O)[C@H](Cc2ccc(O)cc2)N(C)C1=O` [Compound P-12] ({CH2CO}-DR[Chg][NMeF]DYDT[NMeY][NMeY]WYC-NH2; thioether N-13) is less than 10 nM. Consider `CC(C)[C@@H]1NC(=O)[C@H](CC(=O)O)NC(=O)[C@H](Cc2cccc(-c3ccccc3)c2)NC(=O)[C@H](Cc2c[nH]c3ccccc23)NC(=O)CSC[C@@H](C(N)=O)NC(=O)[C@H](CC(=O)O)NC(=O)[C@H](Cc2cccc(-c3ccccc3)c2)NC(=O)[C@H](Cc2c[nH]c3ccccc23)NC(=O)[C@H](CC2CCC2)NC(=O)[C@H](CC(=O)O)NC(=O)[C@H](CO)NC(=O)[C@H](CC(=O)O)NC1=O` [Compound P-21] ({CH2CO}-W[Phe(3-Ph)]DVDSD[Cba]W[Phe(3-Ph)]DC-NH2; thioether N-12), for which the Kd in data set [2] was less than 10 nM. With `CC[C@H](C)[C@@H]1NC(=O)[C@H](Cc2cccnc2)NC(=O)[C@@H](Cc2ccccc2)NC(=O)CSC[C@@H](C(N)=O)NC(=O)[C@H]([C@@H](C)CC)NC(=O)[C@H]([C@@H](C)CC)NC(=O)[C@H](Cc2ccccc2)NC(=O)[C@H](Cc2ccc(O)cc2)N(C)C(=O)[C@H](CC(=O)O)NC(=O)[C@H](CO)NC(=O)[C@H](C)N(C)C(=O)[C@H](C)N(C)C(=O)[C@H](Cc2cccnc2)NC(=O)[C@H](CC(C)C)NC1=O` [Compound P-30] ({CH2CO}-[dF][3Pal]IL[3Pal][NMeA][NMeA]SD[NMeY]FIIC-NH2; thioether N-14), the fraction unbound in data set [3] (plasma) was 0.1 to 0.3.

On to `CCCCC[C@@H]1NC(=O)CN(C)C(=O)[C@H](C(C)C)NC(=O)[C@H](Cc2c[nH]c3cc(Cl)ccc23)NC(=O)CNC(=O)[C@H]([C@@H](C)O)NC(=O)[C@H](Cc2ccccc2)N(C)C(=O)CNC(=O)[C@H](CCCNC(=N)N)NC(=O)[C@H](Cc2ccc(O)cc2)NC(=O)[C@H](Cc2cccc(Cl)c2)NC(=O)[C@H](C(C)C)NC(=O)[C@H](C)NC(=O)CSC[C@@H](C(N)=O)NC1=O` [Compound P-31] ({CH2CO}-AV[Phe(3-Cl)]YRG[NMeF]TG[Trp(6-Cl)]V[Sar][Ahp(2)]C-NH2; thioether N-14), for which, in data set [3], the fraction unbound was 0.1 to 0.3. Compound “C-40: "Conjugate C-40 contains a monocyclic peptide P-40 of Table 3"; made from peptide-3 and DOTA-OSu ([dA]D[Bip]IYPA[Bip]SSES[NMeF]C[βAla][dK](PEG‑DOTA)[γGlu][γGlu]-NH2; bridge N-14; not fully specified (bridges)) [Compound C-40]” returned a Kd in data set [4] of 10 to 1000 nM.

For the compound “P-22 ([NMeF]DDSVWD[hPhe]YC-NH2; bridge N-10; not fully specified (N-terminus, bridges)) [Compound P-22]”, in data set [5], the EC50 was 100 to 1000 nM.

The values above are taken from patent US20230158179A1, “RADIOPHARMACEUTICAL CONJUGATE COMPOSITIONS AND USES THEREOF” (RayzeBio, Inc., priority 2020, published 2023).
